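Exposure lasted 48 hours, with cells grown in 96-well plates and compounds tested at five concentrations. GI50 = concentration required for 50% inhibition of growth.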 The source made the active and inactive calls. No stated cut-off is given here; in the data, active = GI50 up to about 1.1 µM and inactive = higher.
Legend:
Assay in all cases: NCI anticancer screen, dose series, 48 h
KM-20L2 = tested on: KM-20L2
LXFL 529 = tested on: LXFL 529
HOP-18 = tested on: HOP-18
RXF 631 = tested on: RXF 631
M19-MEL = tested on: M19-MEL
SNB-78 = tested on: SNB-78
DLD-1 = tested on: DLD-1
DMS-114 = tested on: DMS-114
MDA-N = tested on: MDA-N

Measured: GI50

S=C1SCC2CCCN12 (configuration not stated)
inactive: KM-20L2 > 100 µM | LXFL 529 > 100 µM | HOP-18 > 100 µM | RXF 631 > 100 µM | M19-MEL > 100 µM | SNB-78 > 100 µM | DLD-1 > 100 µM | DMS-114 > 100 µM

OCC12C3C4C1C1C2C3C41CO (configuration not stated)
inactive: KM-20L2 > 100 µM | LXFL 529 > 100 µM | HOP-18 > 100 µM | RXF 631 > 100 µM | M19-MEL > 100 µM | SNB-78 > 100 µM | DLD-1 > 100 µM | DMS-114 > 100 µM

CS(=O)(=O)c1nc(Cl)c(Cl)c(C#N)c1Cl
inactive: KM-20L2 6.03 µM | LXFL 529 1.57 µM | HOP-18 6.1 µM | MDA-N 1.83 µM | RXF 631 20.2 µM | SNB-78 9.91 µM | DLD-1 1.59 µM | DMS-114 5.32 µM

CC(C)(C)OC(=O)C#CC[C@H]1CCCC1/C=C/C(O)=C1/C(=O)NC(CCCNC(=O)OC(C)(C)C)C1=O (some centres not stated)
inactive: KM-20L2 25.1 µM | LXFL 529 21.8 µM | HOP-18 25.7 µM | RXF 631 19.4 µM | M19-MEL 25.9 µM | DLD-1 53 µM | DMS-114 21.3 µM

COc1ccc(/C(Cl)=C(\C=O)c2ccc([N+](=O)[O-])cc2)cc1
inactive: KM-20L2 15 µM | LXFL 529 3.27 µM | HOP-18 34.9 µM | RXF 631 24.2 µM | SNB-78 5.6 µM | DLD-1 16.7 µM | DMS-114 17.3 µM

CC[C@@H](C)[C@@H]1NC(=O)C(C(C)=O)=C1O
inactive: KM-20L2 23.2 µM | LXFL 529 20.7 µM | HOP-18 12.9 µM | RXF 631 15.1 µM | M19-MEL 11.9 µM | SNB-78 23.3 µM | DLD-1 20.9 µM | DMS-114 31.8 µM

CCCC/C=C1\CCC(CN2CCCCC2)C1=O (configuration not stated)
inactive: KM-20L2 15.2 µM | LXFL 529 1.7 µM | HOP-18 8.73 µM | MDA-N > 100 µM | RXF 631 8.11 µM | M19-MEL 8.36 µM | SNB-78 4.2 µM | DLD-1 1.76 µM | DMS-114 6.65 µM

O=c1c2ccccc2[nH]c2c(O)ccc(O)c12
inactive: KM-20L2 78.9 µM | LXFL 529 15.1 µM | RXF 631 21.8 µM | M19-MEL 24.9 µM | SNB-78 19 µM | DLD-1 > 10 µM | DMS-114 17.9 µM

Cc1cc(C)c(C(=O)OC(c2ccccc2)C(c2ccccc2)N2CCOCC2)c(C)c1 (configuration not stated)
inactive: KM-20L2 > 100 µM | LXFL 529 > 100 µM | HOP-18 > 100 µM | RXF 631 > 100 µM | M19-MEL > 100 µM | SNB-78 > 100 µM | DLD-1 > 100 µM | DMS-114 > 100 µM

NC1CCC[C@H]1O (some centres not stated)
inactive: KM-20L2 > 100 µM | HOP-18 > 100 µM | RXF 631 > 100 µM | M19-MEL > 100 µM | SNB-78 > 100 µM | DLD-1 > 100 µM | DMS-114 > 100 µM
